According to patent US20100021940A1, “Method for Determining the Activity of a Protease in a Sample” (ASTRAZENECA AB, priority 2006, published 2010):
Values joined by “and” are separate entries in the source; they are usually repeats but may differ in a detail not shown here. Identical values can stand only once.

Columns and labels:
MMP9 = MMP9 activity in whole blood via 4-nitroaniline in plasma after zymosan stimulation (LC-MS); assay type: biochemical, human; details: for 4-nitroaniline concentration, Mean: group mean; for 4-nitroaniline concentration: individual subjects, substrate 10 μM in plasma, 37° C., 60 min
Procedure: Samples of heparinised whole blood (1 mL) were stimulated with Zymosan (0, 50, 300, 600, 900 and 1200 μg/mL), vortexed or and incubated at 37° C. for 15 minutes. Plasma was collected after centrifugation, mixed with the substrate (10 μM) and incubated at 37° C. for 60 minutes. Methanol (300 μL), with (^13C)6-4-nitroaniline (1 μM) as internal standard, was added to a 100 μL aliquot of the above mixture and centrifuged to remove precipitated proteins. The supernatant (100 μL) was diluted with water (100 μL) and the extracts was injected directly onto a HPLC column.
Thaw, as required, pooled control human plasma, quality control and test samples. Add methyl 1-acetyl-L-prolyl-L-leucylglycyl-α-R-(4-nitrophenylamino)-glycyl-L-leucyl-β-alaninate (2 μL, solution D) to test plasma sample (200 μL) in 2 mL screw cap microtubes and mix on a vortex mixer.
Incubate tubes for 60 minutes at 37° C. in a shaking water bath. Prepare the calibration samples in plasma as detailed in Table 1 during the 60 minute incubation of test samples in step 3. Mix the samples on a vortex mixer.
Manually dispense aliquots (100 μL) of each plasma sample into separate wells of a 96 deep-well 2 mL plate using an appropriate pipette. (Note: start pipetting calibration, quality control and blank samples approximately 10 minutes before the test samples have finished their incubation in step 3). Dispense internal standard in methanol (300 μL) into each well using the Tecan. Cover the plate with polystyrene cover. Centrifuge at 3000 rpm for 5 minutes at room temperature.
Transfer an aliquot (100 μL) of the sample supernatant into separate wells of a 96 deep-well 2 mL plate using the Tecan. Mix water (100 μL) with each sample in the wells of a 96 deep-well polypropylene plate using the Tecan. Cover plate with pre-spilt 96 well seal.
Analyse 10 μL aliquots by LC/MS.
Whole blood samples were stimulated with varying concentrations of zymosan (0, 50, 300, 600, 900 and 1200 μg/mL). Plasma sample obtained from the stimulated whole blood samples were mixed with the substrate methyl 1-acetyl-L-prolyl-L-leucylglycyl-α-R-(4-nitrophenylamino)-glycyl-L-leucyl-β-alaninate at a plasma concentration of 10 μM and the samples were then incubated at 37° C. for 60 minutes. Aliquots (100 μL) of the human plasma were mixed with methanol (300 μL) containing [^13C]6-4-nitroaniline as an internal standard to precipitate the proteins and the sample was centrifuged and supernatants (100 μL) were mixed with water (100 μL). The extracts 10 μL were injected directly onto a Phenomenex Luna phenyl-hexyl column (50×2.0 mm, 5 μm) and the compounds eluted with a gradient mobile phase consisting of 0.01% ammonia/methanol. 4-nitroaniline was resolved from endogenous plasma constituents and the HPLC effluent was directed into the mass spectrometer via a heated nebuliser interface in negative mode. 4-nitroaniline and [^13C]6-4-nitroaniline were detected using single ion monitoring of the [M-H]^− ions at the mass to charge ratio of m/z 137 and 143 respectively. The method is described above.
The method is validated over the range 0.0500 to 10.0 μM for 4-nitroaniline based on the analysis of a 100 μL plasma sample. Quality control samples at concentrations of 0.100, 2.00 and 8.00 μM 4-nitroaniline were included to determine the acceptability of each analysis batch. The limit of quantification (LOQ) of the method is 0.0500 μM 4-nitroaniline for a 100 μL aliquot of plasma.

MMPs = test: Cleavage of separated diastereomers by MMPs to liberate the reporter; assay type: biochemical
MMP12 = biological target: T1, MMP12 (Homo sapiens, UniProt P39900); test: Activity of purified MMP on substrate (reporter release); assay type: biochemical; details: 30 μM substrate; MMP Conc. 0.27 nM; ABL010827
T1 construct: Recombinant human MMP12 catalytic domain may be expressed and purified; made in house
Text: In order to confirm the specificity of the substrates for various MMPs, standard enzymatic assays were adapted to monitor the release of reporter. The reporter was either analysed by a LC-MS method as described in Example 3a, or by a LC-UV method as described in Example 4.
Recombinant human MMP12 catalytic domain may be expressed and purified as described by Parkar A. A. et al, (2000), Protein Expression and Purification, 20, 152. The purified enzyme can be used to monitor activity of substrates as follows: MMP12 (50 ng/ml final […]) in assay buffer (0.1M “Tris-HCl” (trade mark) buffer, pH 7.3 containing 0.1M NaCl, 20 mM CaCl2, 0.020 mM ZnCl and 0.05% (w/v) “Brij 35” (trade mark) detergent) in the presence or absence of inhibitors. Activity is determined by measuring the release of reporter 4-nitroaniline by the using the method in Example 3a.

[1] = healthy volunteers, visit 3, zymosan 0 μg
[2] = healthy volunteers, visit 3, zymosan 50 μg
[3] = healthy volunteers, visit 3, zymosan 300 μg
[4] = healthy volunteers, visit 3, zymosan 600 μg
[5] = healthy volunteers, visit 3, zymosan 900 μg
[6] = healthy volunteers, visit 3, zymosan 1200 μg
[7] = healthy volunteers, visit 4, zymosan 0 μg
[8] = healthy volunteers, visit 4, zymosan 50 μg
[9] = healthy volunteers, visit 4, zymosan 300 μg
[10] = healthy volunteers, visit 4, zymosan 600 μg
[11] = healthy volunteers, visit 4, zymosan 900 μg
[12] = healthy volunteers, visit 4, zymosan 1200 μg

T1 sequence (P39900 106-263 limits assumed): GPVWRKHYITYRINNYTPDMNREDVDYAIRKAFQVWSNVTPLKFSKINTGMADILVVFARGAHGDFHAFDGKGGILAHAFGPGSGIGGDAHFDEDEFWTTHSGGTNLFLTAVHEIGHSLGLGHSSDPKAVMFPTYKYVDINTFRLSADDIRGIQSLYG

COC(=O)CCNC(=O)[C@H](CC(C)C)NC(=O)[C@@H](NC(=O)CNC(=O)[C@H](CC(C)C)NC(=O)[C@@H]1CCCN1C(C)=O)Nc1ccc([N+](=O)[O-])cc1 [Example 1.1, Methyl 1-acetyl-L-prolyl-L-leucylglycyl-α-R-(4-nitrophenylamino)-glycyl-L-leucyl-β-alaninate]
4-nitroaniline concentration, Mean (MMP9; COPD patients, visit 3, zymosan 0 μg): 0.128 µM | 4-nitroaniline concentration, Mean (MMP9; COPD patients, visit 3, zymosan 50 μg): 1.58 µM | 4-nitroaniline concentration, Mean (MMP9; COPD patients, visit 3, zymosan 300 μg): 3.56 µM | 4-nitroaniline concentration, Mean (MMP9; COPD patients, visit 3, zymosan 600 μg): 4.33 µM | 4-nitroaniline concentration, Mean (MMP9; COPD patients, visit 3, zymosan 900 μg): 4.77 µM | 4-nitroaniline concentration, Mean (MMP9; COPD patients, visit 3, zymosan 1200 μg): 4.68 µM | 4-nitroaniline concentration, Mean (MMP9; COPD patients, visit 4, zymosan 0 μg): 0.141 µM | 4-nitroaniline concentration, Mean (MMP9; COPD patients, visit 4, zymosan 50 μg): 1.51 µM | 4-nitroaniline concentration, Mean (MMP9; COPD patients, visit 4, zymosan 300 μg): 3.31 µM | 4-nitroaniline concentration, Mean (MMP9; COPD patients, visit 4, zymosan 600 μg): 4.03 µM | 4-nitroaniline concentration, Mean (MMP9; COPD patients, visit 4, zymosan 900 μg): 4.41 µM | 4-nitroaniline concentration, Mean (MMP9; COPD patients, visit 4, zymosan 1200 μg): 4.54 µM | 4-nitroaniline concentration, Mean (MMP9; [1]): 0.121 µM | 4-nitroaniline concentration (MMP9; [1]): 0.145 μM (2×) and 0.132 μM and 0.126 μM and 0.0917 μM and 0.124 μM and 0.104 μM and 0.0963 μM and 0.118 μM and 0.123 μM | 4-nitroaniline concentration, Mean (MMP9; [2]): 1.22 µM | 4-nitroaniline concentration (MMP9; [2]): 1.13 μM (2×) and 1.82 μM and 2.10 μM and 1.52 μM and 0.988 μM and 0.836 μM and 0.878 μM and 0.646 μM and 1.16 μM | 4-nitroaniline concentration, Mean (MMP9; [3]): 2.82 µM | 4-nitroaniline concentration (MMP9; [3]): 2.48 µM and 3.68 µM and 2.65 µM and 4.32 µM and 3.63 µM and 2.82 µM and 2.31 µM and 2.42 µM and 1.56 µM and 2.28 µM | 4-nitroaniline concentration, Mean (MMP9; [4]): 3.36 µM | 4-nitroaniline concentration (MMP9; [4]): 3.00 µM and 4.26 µM and 2.98 µM and 4.39 µM and 4.23 µM and 3.90 µM and 3.08 µM and 2.99 µM and 1.84 µM and 2.95 µM | 4-nitroaniline concentration, Mean (MMP9; [5]): 3.52 µM | 4-nitroaniline concentration (MMP9; [5]): 3.05 µM and 4.50 µM and 3.14 µM and 4.38 µM and 4.24 µM and 3.98 µM and 3.45 µM and 3.35 µM and 2.07 µM and 2.99 µM | 4-nitroaniline concentration, Mean (MMP9; [6]): 3.59 µM | 4-nitroaniline concentration (MMP9; [6]): 3.07 µM and 4.53 µM and 2.99 µM and 4.28 µM and 4.45 µM and 4.41 µM and 3.53 µM and 3.50 µM and 2.14 µM and 3.02 µM | 4-nitroaniline concentration, Mean (MMP9; [7]): 0.131 µM | 4-nitroaniline concentration (MMP9; [7]): 0.154 µM and 0.192 µM and 0.106 µM and 0.0977 µM and 0.130 µM and 0.199 µM and 0.0803 µM | 4-nitroaniline concentration, Mean (MMP9; [8]): 0.986 µM | 4-nitroaniline concentration (MMP9; [8]): 1.49 µM and 2.11 µM and 0.808 µM and 0.616 µM and 0.732 µM and 0.795 µM and 0.758 µM | 4-nitroaniline concentration, Mean (MMP9; [9]): 2.39 µM | 4-nitroaniline concentration (MMP9; [9]): 2.81 µM and 4.29 µM and 1.92 µM and 1.68 µM and 1.98 µM and 2.29 µM and 2.22 µM | 4-nitroaniline concentration, Mean (MMP9; [10]): 2.84 µM | 4-nitroaniline concentration (MMP9; [10]): 3.17 µM and 4.36 µM and 2.39 µM and 2.12 µM and 2.41 µM and 3.36 µM | 4-nitroaniline concentration, Mean (MMP9; [11]): 3.26 µM | 4-nitroaniline concentration (MMP9; [11]): 3.27 μM and 5.53 μM and 2.69 μM and 2.46 μM and 3.03 μM and 3.48 μM (2×) | 4-nitroaniline concentration, Mean (MMP9; [12]): 3.39 µM | 4-nitroaniline concentration (MMP9; [12]): 3.32 µM and 5.28 µM and 2.84 µM and 2.85 µM and 3.15 µM and 4.00 µM | 4-nitroaniline concentration, Mean (MMP9; smokers, visit 3, zymosan 0 μg): 0.149 µM | 4-nitroaniline concentration, Mean (MMP9; smokers, visit 3, zymosan 50 μg): 1.45 µM | 4-nitroaniline concentration, Mean (MMP9; smokers, visit 3, zymosan 300 μg): 3.35 µM | 4-nitroaniline concentration, Mean (MMP9; smokers, visit 3, zymosan 600 μg): 4.10 µM | 4-nitroaniline concentration, Mean (MMP9; smokers, visit 3, zymosan 900 μg): 4.45 µM | 4-nitroaniline concentration, Mean (MMP9; smokers, visit 3, zymosan 1200 μg): 4.47 µM | 4-nitroaniline concentration, Mean (MMP9; smokers, visit 4, zymosan 0 μg): 0.142 µM | 4-nitroaniline concentration, Mean (MMP9; smokers, visit 4, zymosan 50 μg): 1.66 µM | 4-nitroaniline concentration, Mean (MMP9; smokers, visit 4, zymosan 300 μg): 3.32 µM | 4-nitroaniline concentration, Mean (MMP9; smokers, visit 4, zymosan 600 μg): 3.76 µM | 4-nitroaniline concentration, Mean (MMP9; smokers, visit 4, zymosan 900 μg): 4.19 µM | 4-nitroaniline concentration, Mean (MMP9; smokers, visit 4, zymosan 1200 μg): 4.41 µM | Cleavage by MMPs to liberate the reporter (MMPs): rapidly cleaved by MMPs | Activity (MMP12): 7.7 units/s
